Experimental data published in US10821100B2, “Triazolone compounds as mPGES-1 inhibitors” (Glenmark Pharmaceuticals S.A., priority 2012, dated 2020).

Target: T1, Recombinant human mPGES-1 (Homo sapiens, UniProt O14684)
T1 construct: made in house; host or cells: CHO cells (crude microsomal fractions)
T1 sequence (O14684 1-152): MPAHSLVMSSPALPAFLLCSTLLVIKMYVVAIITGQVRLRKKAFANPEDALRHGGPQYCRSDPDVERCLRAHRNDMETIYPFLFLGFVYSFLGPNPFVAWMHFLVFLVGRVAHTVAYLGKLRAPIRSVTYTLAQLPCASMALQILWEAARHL
Test: In-vitro screening of mPGES-1 inhibitors (inhibition of PGE2 formation from PGH2, HTRF detection)
Type: biochemical
Conditions: mPGES-1 enzyme; for inhibition at 1 µM: 1 μM test compound, read-out: Percentage inhibition at 1 μM; for inhibition at 1 µM / inhibition at 10 µM: crude microsomal fractions; for inhibition at 10 µM: 10 μM test compound, read-out: Percentage inhibition at 10 μM; for IC50: class symbols
Description: In-Vitro Protocol for Screening of mPGES-1 Inhibitors: mPGES-1 (Microsomal prostaglandin E synthase-1) is a microsomal enzyme that converts endoperoxide substrate PGH2 (prostaglandin H2) to product PGE2 (prostaglandin E2) by isomerization in the presence of reduced glutathione (GSH). mPGES-1 inhibitors were screened by assessing their ability to inhibit formation of PGE2 from PGH2 in the presence of mPGES-1 using an anti-PGE2 antibody based detection method. Recombinant human mPGES-1 was generated in-house by expression in CHO cells (Ouellet M et al. (2002), Protein Expression and Purification 26: 489-495). The assay was set up using crude microsomal fractions at a protein concentration of 40-60 μg/mL. Test compounds were prepared in 100% dimethyl sulfoxide (DMSO) to obtain 20 mM stock solution and then diluted using assay buffer comprising 0.1 M Potassium phosphate buffer with 2 mM EDTA. The final concentration of DMSO in the reaction was 0.5% (v/v). Negative controls were comprised of all assay reagents except the enzyme. Positive controls were comprised of the enzyme reaction in the absence of any inhibitor. Test compounds were incubated for 10 minutes in assay buffer containing 2.5 mM GSH and mPGES-1 enzyme followed by addition of PGH2 at a concentration of 15 μM for 1 minute. The reaction was stopped by addition of Stannous chloride (11 mg/ml) and PGE2 levels were measured ([…] et al. (2005), Journal of Biomolecular Screening 10(6) 599-605; Goedken R E et al. (2008), Journal of Biomolecular Screening 13 (7): 619-625) by HTRF kit (CisBio)). Inhibition of mPGES-1 enzyme activity was measured using the percent of reaction occurring in the positive control. Concentration response curves were plotted using percent inhibition of maximum enzyme reaction. The IC50 value was calculated from the concentration response curve by nonlinear regression analysis using GraphPad PRISM software.

inhibition at 1 µM	inhibition at 10 µM	IC50	SMILES
92.4%	94.8%	< 50 nM	COc1cc(-n2nc(-c3cc(CNC(=O)C4CC4)ccc3Cl)[nH]c2=O)ccc1C(=O)Nc1ccc(F)c(C(F)F)c1 [Example-63, 4-(3-(2-Chloro-5-(cyclopropanecarboxamidomethyl)phenyl)-5-oxo-4,5-dihydro-1H-1,2,4-triazol-1-yl)-N-(3-(difluoromethyl)-4-fluorophenyl)-2-methoxybenzamide]
76.2%	87.8%	> 100 nM	CC1(C)CCC(n2nc(-c3cc(CNC(=O)C(C)(C)C)ccc3Cl)[nH]c2=O)CC1 [Example-118, N-(4-Chloro-3-(4,5-dihydro-1-(4,4-dimethylcyclohexyl)-5-oxo-1H-1,2,4-triazol-3-yl)benzyl)pivalamide]
79.2%	85.8%	> 100 nM	O=C(Nc1ccc(C(F)(F)F)cc1)c1ccc(-n2nc(-c3c(F)cccc3Cl)[nH]c2=O)cc1 [Example-29, 4-(3-(2-Chloro-6-fluorophenyl)-5-oxo-4,5-dihydro-1H-1,2,4-triazol-1-yl)-N-(4-(trifluoromethyl)phenyl)benzamide]
81.7%	97.2%	> 100 nM	CC(C)(C)C(=O)NCc1ccc(Cl)c(-n2nc(-c3ccc(Cl)cc3F)[nH]c2=O)c1F [Example-90, N-(4-Chloro-3-(3-(4-chloro-2-fluorophenyl)-5-oxo-4,5-dihydro-1H-1,2,4-triazol-1-yl)-2-fluorobenzyl)pivalamide]
97.9%	99.5%	< 50 nM	Cc1ccc(CNC(=O)C(C)(C)C)c(C)c1-c1nn(-c2ccc(C#CC3CC3)cc2)c(=O)[nH]1 [Example-165, N-(3-(1-(4-(2-Cyclopropylethynyl)phenyl)-4,5-dihydro-5-oxo-1H-1,2,4-triazol-3-yl)-2,4-dimethylbenzyl)pivalamide]
96.6%	97.8%	50 to 100 nM	CC(C)(C)C(=O)NCc1cc(-n2nc(-c3ccc(C#CC4CC4)cc3)[nH]c2=O)c(Cl)cc1Cl [Example-130, N-(2,4-Dichloro-5-(3-(4-(2-cyclopropylethynyl)phenyl)-4,5-dihydro-5-oxo-1,2,4-triazol-1-yl)benzyl)pivalamide]
9.32%	68.2%	–	[O-][S+]1NC(c2c(F)cccc2Cl)=NN1c1ccc(Br)cc1 (stereo not shown) [Example-1, 2-(4-Bromophenyl)-4-(2-chloro-6-fluorophenyl)-2,5-dihydro-1,2,3,5-thiatriazole-1-oxide]
98%	95.5%	< 50 nM	O=C(NCc1ccc(Cl)c(-c2nn(-c3ccc(Cl)c(F)c3)c(=O)[nH]2)c1)C(F)(F)F [Example-116, N-(4-chloro-3-(1-(4-chloro-3-fluorophenyl)-4,5-dihydro-5-oxo-1H-1,2,4-triazol-3-yl)benzyl)-2,2,2-trifluoroacetamide]
89.5%	96.5%	< 50 nM	COc1cc(-n2nc(-c3c(F)cccc3Cl)[nH]c2=O)ccc1-c1nc(-c2cc(F)cc(C(F)(F)F)c2)no1 [Example-47, 3-(2-Chloro-6-fluorophenyl)-1-(4-(3-(3-fluoro-5-(trifluoromethyl)phenyl)-1,2,4-oxadiazol-5-yl)-3-methoxyphenyl)-1H-1,2,4-triazol-5(4H)-one]
100%	99.2%	< 50 nM	CC(C)(C)C(=O)NCc1cc(-c2nn(-c3ccc(F)c(Cl)c3)c(=O)[nH]2)c(Cl)cc1F [Example-131, N-(4-Chloro-5-(1-(3-chloro-4-fluorophenyl)-4,5-dihydro-5-oxo-1H-1,2,4-triazol-3-yl)-2-fluorobenzyl)pivalamide]
28%	89%	–	CC1(C)CCC(n2nc(-c3cc(CNC(=O)C(F)(F)F)c(F)cc3Cl)[nH]c2=O)CC1 [Example-124, N-(4-chloro-2-fluoro-5-(4,5-dihydro-1-(4,4-dimethylcyclohexyl)-5-oxo-1H-1,2,4-triazol-3-yl)benzyl)-2,2,2-trifluoroacetamide]
97.5%	92.7%	< 50 nM	CC(C)C(=O)NCc1ccc(Cl)c(-c2nn(-c3ccc(C(F)(F)F)cc3)c(=O)[nH]2)c1 [Example-144, N-(4-Chloro-3-(1-(4-(trifluoromethyl)phenyl)-4,5-dihydro-5-oxo-1H-1,2,4-triazol-3-yl)benzyl)isobutyramide]
95.1%	94.8%	< 50 nM	CC(C)(C)C(=O)NCc1cc(-n2nc(-c3ccc(C#CC4CC4)cc3)[nH]c2=O)c(Cl)cc1F [Example-136, N-(4-Chloro-5-(3-(4-(2-cyclopropylethynyl)phenyl)-4,5-dihydro-5-oxo-1,2,4-triazol-1-yl)-2-fluorobenzyl)pivalamide]
97.1%	97.2%	50 to 100 nM	O=C(NCc1ccc(Cl)c(-c2nn(-c3ccc(C(F)(F)F)cc3)c(=O)[nH]2)c1)[C@@H]1CCCO1 [Example-109, (S)—N-(4-Chloro-3-(1-(4-(trifluoromethyl)phenyl)-4,5-dihydro-5-oxo-1H-1,2,4-triazol-3-yl)benzyl)-tetrahydro furan-2-carboxamide]
98.9%	97.8%	< 50 nM	CC(C)(C)C(=O)NCc1ccc(Cl)c(-n2nc(-c3ccc(F)c(C(F)(F)F)c3)[nH]c2=O)c1 [Example-148, N-(4-Chloro-3-(3-(4-fluoro-3-(trifluoromethyl)phenyl)-4,5-dihydro-5-oxo-1,2,4-triazol-1-yl)benzyl)pivalamide]
99%	99.7%	< 50 nM	Cc1ccc(-n2nc(-c3cc(CNC(=O)C(C)(C)C)ccc3Cl)[nH]c2=O)cc1C(F)(F)F [Example-158, N-(4-Chloro-3-(1-(3-(trifluoromethyl)-4-methylphenyl)-4,5-dihydro-5-oxo-1H-1,2,4-triazol-3-yl)benzyl)pivalamide]
96.2%	98.5%	< 50 nM	O=C(NCc1cnc(C(F)F)c(-c2nn(-c3ccc(C(F)(F)F)cc3)c(=O)[nH]2)c1)C1CCC1 [Example-189, N-((6-(Difluoromethyl)-5-(5-oxo-1-(4-(trifluoromethyl)phenyl)-4,5-dihydro-1H-1,2,4-triazol-3-yl)pyridin-3-yl)methyl)cyclobutanecarboxamide]
89.5%	99.3%	50 to 100 nM	CC(C)S(=O)(=O)NCc1cnc(C(F)F)c(-c2nn(-c3ccc(C(F)(F)F)cc3)c(=O)[nH]2)c1 [Example-188, N-((6-(Difluoromethyl)-5-(5-oxo-1-(4-(trifluoromethyl)phenyl)-4,5-dihydro-1H-1,2,4-triazol-3-yl)pyridin-3-yl)methyl)propane-2-sulfonamide]
98.5%	96.5%	< 50 nM	CC(C)(C)C(=O)NCc1ccc(Cl)c(-c2nn(-c3ccc(Cl)c(C(F)(F)F)c3)c(=O)[nH]2)c1 [Example-157, N-(4-Chloro-3-(1-(4-chloro-3-(trifluoromethyl)phenyl)-4,5-dihydro-5-oxo-1H-1,2,4-triazol-3-yl)benzyl)pivalamide]
